Reference: patent publication US9428487B2, “Heteroaromatic amides and thioamides as pesticides” (Bayer Intellectual Property GmbH, priority 2008, dated 2016)
Like-named read-outs stand apart in the source and are kept apart here.

How the values were obtained:
[1] = Determination of log P values by HPLC on reversed-phase column (formic acid method); format: physicochemical; settings: reversed-phase C 18, acidic range (pH 3.4), formic acid eluents, 55° C., read-out: logP (HCOOH)
Experimental: 1) Description of Method for Determining the Log P Values (Formic Acid Method)
The log P values reported in the table were determined according to EEC-Directive 79/831 Annex V.A8 by HPLC (High Performance Liquid Chromatography) on a reversed-phase column (C 18). […]
Eluent A: acetonitrile+1 ml of formic acid/liter. Eluent B: water+0.9 ml of formic acid/liter.
Gradient: from 10% eluent A/90% eluent B to 95% eluent A/5% eluent B in 4.25 min
The calibration was effected with unbranched alkan-2-ones (with 3 to 16 carbon atoms), whose log P values are known (determination of the log P values on the basis of the retention times by linear interpolation between two successive alkanones). The lambda-max values were determined with reference to the UV spectra from 200 nm to 400 nm in the maxima of the chromatographic signals.

[2] = test system: green peach aphid (Myzus persicae); assay: Myzus test; format: in vivo; settings: read-out: efficacy (aphids killed)
Experimental: • Solvent: 78.0 parts by weight of acetone • 1.5 parts by weight of dimethylformamide • Emulsifier: 0.5 part by weight of alkylaryl polyglycol ether
To produce an appropriate active ingredient formulation, 1 part by weight of active ingredient is mixed with the amounts of solvent and emulsifier specified and the concentrate is diluted to the desired concentration with emulsifier-containing water.
Chinese cabbage leaf slices (Brassica pekinensis) infested by all stages of the green peach aphid (Myzus persicae) are sprayed with an active ingredient formulation of the desired concentration.
After the desired time, the efficacy in % is determined 100% means that all aphids have been killed; 0% means that no aphids have been killed.

[3] = reversed-phase HPLC column (C 18), pH 3.4, HPLC
[4] = application rate 500 g/ha, spray on Chinese cabbage leaf slices

Compound | chromatographic logP [1, 3] | pest or weed control at 500 g/ha [2, 4] [%] | chromatographic logP ([1]; HPLC) | pest or weed control at 500 g/ha ([2]; in Brassica rapa) [%]
CSC[C@H](C)NC(=O)c1sc(-c2cccnc2)nc1C [Compound 56] | 1.68 | ≥ 70 | – | –
Cc1nc(-c2cccnc2)sc1C(=O)NCC(F)F [Compound 57] | 1.34 | ≥ 70 | – | –
Cc1nc(-c2cccnc2)sc1C(=O)N(CC(F)(F)F)C(=O)C1(F)CC1 [Compound 58] | 2.77 | ≥ 70 | – | –
CNC(=O)c1cnc(-c2cccnc2)s1 [Compound 59] | 0.62 | ≥ 70 | – | –
Cc1nc(-c2cccnc2)sc1C(=O)NCc1ccon1 [Compound 60] | 1.14 | ≥ 70 | – | –
CCN(C)C(=O)c1cnc(-c2cccnc2)s1 [Compound 61] | 1.23 | ≥ 70 | – | –
Cc1nc(-c2cccnc2)sc1C(=O)NCC1OCC(C)O1 (stereo not shown) [Compound 62] | 1.34 | ≥ 70 | – | –
Cc1nc(-c2cccnc2)sc1C(=O)NC(C#N)C(C)C (stereo not shown) [Compound 63] | 1.85 | ≥ 70 | – | –
COC(OC)C(C)NC(=O)c1sc(-c2cccnc2)nc1C (stereo not shown) [Compound 65] | 1.45 | ≥ 70 | – | –
Cc1nc(-c2cccnc2)sc1C(=O)NC1(C#N)CC1 [Compound 66] | 1.2 | ≥ 70 | – | –
CCN(CC)C(=O)c1cnc(-c2cccnc2)s1 [Compound 67] | 1.46 | ≥ 70 | – | –
COCN(CC(F)(F)F)C(=O)c1sc(-c2cccnc2)nc1C [Compound 69] | 2.06 | ≥ 70 | – | –
COC1(NC(=O)c2cnc(-c3cccnc3)s2)CC1 [Compound 70] | 1.14 | ≥ 70 | – | –
CSC[C@H](C)N(C)C(=O)c1sc(-c2cccnc2)nc1C [Compound 71] | 1.71 | ≥ 70 | – | –
NC(=O)c1cnc(-c2cccnc2)s1 [Compound 72] | 0.29 | ≥ 70 | – | –
CSCC(C)(C)NC(=O)c1sc(-c2cccnc2)nc1C [Compound 73] | 2.05 | ≥ 70 | – | –
Cc1nccc(CNC(=O)c2cnc(-c3cccnc3)s2)n1 [Compound 74] | 0.94 | ≥ 70 | – | –

Compound | chromatographic logP [1, 3] | pest or weed control at 500 g/ha [2, 4] [%] | chromatographic logP ([1]; HPLC) | pest or weed control at 500 g/ha ([2]; in Brassica rapa) [%]
Cc1nc(-c2cccnc2)sc1C(=O)NCC(C)F (stereo not shown) [Compound 75] | 1.34 | ≥ 70 | – | –
Cc1cnc(CNC(=O)c2sc(-c3cccnc3)nc2C)cn1 [Compound 77] | 1.15 | ≥ 70 | – | –
Cc1nc(-c2ccc[n+]([O-])c2)sc1C(=O)NCC(F)(F)F [Compound 78] | 1.31 | ≥ 70 | – | –
N#CCNC(=O)c1cnc(-c2cccnc2)s1 [Compound 79] | 0.88 | ≥ 70 | – | –
Cc1nc(-c2cccnc2)sc1C(=O)N(C)CC(C)F (stereo not shown) [Compound 80] | 1.5 | ≥ 70 | – | –
O=C(NCc1ccncn1)c1cnc(-c2cccnc2)s1 [Compound 81] | 0.73 | ≥ 70 | – | –
Cc1nc(-c2cccnc2)sc1C(=O)NCC(F)(F)C(F)F [Compound 82] | 1.75 | ≥ 70 | – | –
Cc1nc(-c2cccnc2)sc1C(=O)N[C@@H]1C[C@@H]1F [Compound 83] | 1.16 | ≥ 70 | – | –
COC(=O)C(C)NC(=O)c1sc(-c2cccnc2)nc1C (stereo not shown) [Compound 84] | 1.36 | ≥ 70 | – | –
Cc1nc(-c2cccnc2)sc1C(=O)N(C)CCF [Compound 85] | 1.23 | ≥ 70 | – | –
Cc1nc(-c2cccnc2)sc1C(=O)NC(C)CC(F)(F)F (stereo not shown) [Compound 86] | 1.94 | ≥ 70 | – | –
Cc1nc(-c2cccnc2)sc1C(=O)NC(C)c1ccccn1 (stereo not shown) [Compound 87] | 1.1 | ≥ 70 | – | –
CCOC1(NC(=O)c2cnc(-c3cccnc3)s2)CC1 [Compound 88] | 1.31 | ≥ 70 | – | –
COC(=O)N(CC(F)(F)F)C(=O)c1sc(-c2cccnc2)nc1C [Compound 116] | – | – | 2.46 | ≥ 70
C#CCOC(=O)N(CC(F)(F)F)C(=O)c1sc(-c2cccnc2)nc1C [Compound 117] | – | – | 2.63 | ≥ 70
CCOC(=O)NC(C)(C)CNC(=O)c1sc(-c2cccnc2)nc1C [Compound 120] | – | – | 1.75 | ≥ 70

Further lines, with some results ahead:

chromatographic logP [1, 3] | Compound | pest or weed control at 500 g/ha [2, 4] [%] | chromatographic logP ([1]; HPLC) | pest or weed control at 500 g/ha ([2]; in Brassica rapa) [%]
2.61 | CCC(=O)N(CC(F)(F)F)C(=O)c1sc(-c2cccnc2)nc1C [Compound 89] | ≥ 70 | – | –
0.78 | Cc1nc(-c2cccnc2)sc1C(=O)NCc1ccccn1 [Compound 90] | ≥ 70 | – | –
1.02 | Cc1nc(-c2cccnc2)sc1C(=O)N(C)Cc1ncccn1 [Compound 91] | ≥ 70 | – | –
1.27 | Cc1nc(-c2cccnc2)sc1C(=O)NCC1OCCCO1 [Compound 92] | ≥ 70 | – | –
1.19 | Cc1nc(-c2cccnc2)sc1C(=O)N(C)Cc1ccccn1 [Compound 93] | ≥ 70 | – | –
1.76 | Cc1nc(-c2cccnc2)sc1C(=O)NC(C)(C#N)C1CC1 (stereo not shown) [Compound 94] | ≥ 70 | – | –
1.24 | Cc1cc(C)nc(CNC(=O)c2sc(-c3cccnc3)nc2C)n1 [Compound 95] | ≥ 70 | – | –
1.98 | Cc1nc(-c2cccnc2)sc1C(=O)NCC(F)(Cl)Cl [Compound 96] | ≥ 70 | – | –
1.42 | Cc1nc(-c2cccnc2)sc1C(=O)NC(C)CF (stereo not shown) [Compound 97] | ≥ 70 | – | –
1.45 | Cc1cc(CNC(=O)c2sc(-c3cccnc3)nc2C)no1 [Compound 98] | ≥ 70 | – | –
1.28 | COCN(Cc1ncccn1)C(=O)c1sc(-c2cccnc2)nc1C [Compound 99] | ≥ 70 | – | –
2.17 | Cc1nc(-c2cccnc2)sc1C(=O)NCC(Cl)(Cl)Cl [Compound 100] | ≥ 70 | – | –
1.33 | COC(CNC(=O)c1sc(-c2cccnc2)nc1C)OC [Compound 101] | ≥ 70 | – | –
1.3 | CN(Cc1ncccn1)C(=O)c1cnc(-c2cccnc2)s1 [Compound 102] | ≥ 70 | – | –
1.4 | Cc1nc(-c2cccnc2)sc1C(=O)NCC1CCCO1 (stereo not shown) [Compound 103] | ≥ 70 | – | –
1.64 | Cc1nc(-c2cccnc2)sc1C(=O)NCC1CCCCO1 (stereo not shown) [Compound 104] | ≥ 70 | – | –
1.23 | Cc1cc(CNC(=O)c2sc(-c3cccnc3)nc2C)n(C)n1 [Compound 105] | ≥ 70 | – | –
0.61 | O=C(NCc1ccccn1)c1cnc(-c2cccnc2)s1 [Compound 106] | ≥ 70 | – | –
1.03 | Cc1nccc(CNC(=O)c2sc(-c3cccnc3)nc2C)n1 [Compound 107] | ≥ 70 | – | –
1.78 | CCOC(CNC(=O)c1sc(-c2cccnc2)nc1C)OCC [Compound 108] | ≥ 70 | – | –
1.61 | COCN(C(=O)c1sc(-c2cccnc2)nc1C)C(C)C(=O)OC (stereo not shown) [Compound 109] | ≥ 70 | – | –
1.22 | Cc1nc(-c2cccnc2)sc1C(=O)NC1CCS(=O)(=O)C1 (stereo not shown) [Compound 110] | ≥ 70 | – | –
1.45 | Cc1nc(-c2cccnc2)sc1C(=O)N(C)C(C)c1ccccn1 (stereo not shown) [Compound 111] | ≥ 70 | – | –
0.81 | O=C(NCc1ncccn1)c1cnc(-c2cccnc2)s1 [Compound 112] | ≥ 70 | – | –
1.46 | COCN(CCF)C(=O)c1sc(-c2cccnc2)nc1C [Compound 113] | ≥ 70 | – | –
1.28 | Cc1nc(-c2cccnc2)sc1C(=O)NC(C)(C)CS(C)(=O)=O [Compound 114] | ≥ 70 | – | –
1.71 | Cc1nc(-c2cccnc2)sc1C(=O)NCc1ccc(Cl)nc1 [Compound 115] | ≥ 70 | – | –
1.14 | O=C(N[C@H]1C[C@@H]1F)c1cnc(-c2cccnc2)s1 [Compound 118] | ≥ 70 | – | –
1.71 | COCN(Cc1cc(C)on1)C(=O)c1sc(-c2cccnc2)nc1C [Compound 119] | ≥ 70 | – | –
